Consider two compounds from patent publication US12692246B2, “Solid form of a bradykinin B2-receptor antagonist” (PHARVARIS GMBH, priority 2021, dated 2026).

Holding throughout (format): physicochemical
The nature of data set [1]: Slow evaporative crystallisation trials (solubility observed in solvents). Here is the method: Into crystallisation tubes (5 ml vol) was charged 20 mg of amorphous (S)—N-(1-deutero-1-(3-chloro-5-fluoro-2-((2-methyl-4-(1-methyl-1H-1,2,4-triazol-5-yl)quinolin-8-yloxy)methyl)phenyl)ethyl)-2-(difluoromethoxy)acetamide. A total of 26 solvents or solvent mixtures were charged to the tubes and the solids agitated over a period of 48 hours at RT and cooled to 0° C.
Slow evaporative crystallisation trials were continued by transferring samples to smaller tapered tubes without agitation and needle bleeds fitted. Slow evaporative crystallisation was attempted with scratching at various points to help induce crystallisation.
Following two weeks, liquors remained in most cases with no evidence of crystallisation. At this point heteronuclear seeding was attempted with a very similar crystalline API source. This had no impact upon the results. The majority of test cases returned clear glasses.

A short description of data set [2]: Mixed solvent cooling crystallization trials (solubility in six solvents). To be noted: 200 mg amorphous material; MeOH, MeCN, MEK, THF, EtOAc, TBME; solutions at 0.5 vol., 25° C., ca. 66 hours equilibration. Here is the method: Amorphous (S)—N-(1-deutero-1-(3-chloro-5-fluoro-2-((2-methyl-4-(1-methyl-1H-1,2,4-triazol-5-yl)quinolin-8-yloxy)methyl)phenyl)ethyl)-2-(difluoromethoxy)acetamide, 6×200 mg, was weighed into crystallisation tubes and charged with solvents (MeOH, MeCN, MEK, THE, EtOAc and TBME) in 0.05 ml (0.25 vol.) aliquots at 25° C. […] Additional solvent (made up to 0.5 vol.) yielded thick yellow solutions. The solutions were equilibrated at 25° C. for ca. 66 hours though this had no impact on the yellow solutions.
Additional solvent was charged to each API solution up to 1 ml (5 vol.) and the solutions were heated to 40° C. and clarified. Heptane was charged in 50 μL aliquots to each solution before cooling to 25° C. over 1 hour. The volume charged and observations at 40 and 25° C. are detailed in Table 3.

Data set [3] is described as follows: Gravimetric Vapour Sorption (GVS). To be noted: 25° C. The procedure: Sorption isotherms were obtained using a Hiden Isochema moisture sorption analyser (model IGAsorp), controlled by IGAsorp Systems Software V6.50.48. The sample was maintained at a constant temperature (25° C.) by the instrument controls. The humidity was controlled by mixing streams of dry and wet nitrogen, with a total flow of 250 ml.min^−1. The instrument was verified for relative humidity content by measuring three calibrated Rotronic salt solutions (10-50-88%). The weight change of the sample was monitored as a function of humidity by a microbalance (accuracy+/−0.005 mg). A defined amount of sample was placed in a tared mesh stainless steel basket under ambient conditions. A full experimental cycle typically consisted of three scans (sorption, desorption and sorption) at a constant temperature (25° C.) and 10% RH intervals over a 0-90% range (60 minutes for each humidity level).

Turning to `[2H][C@@](C)(NC(=O)COC(F)F)c1cc(F)cc(Cl)c1COc1cccc2c(-c3ncnn3C)cc(C)nc12` [(S)—N-(1-deutero-1-(3-chloro-5-fluoro-2-((2-methyl-4-(1-methyl-1H-1,2,4-triazol-5-yl)quinolin-8-yloxy)methyl)phenyl)ethyl)-2-(difluoromethoxy)acetamide], in data set [1] (20 mg amorphous material, 26 solvents or solvent mixtures, agitated 48 hours at RT and cooled to 0° C., in the majority of solvents), the solubility in solvents result is “extreme solubility”. Besides, in data set [1] (continued slow evaporation without agitation, scratching, heteronuclear seeding, 3 weeks), the “solubility in solvents (continued trials)” value is recorded as “extreme solubility”. Further, the “solubility in the 6 solvents investigated” value in data set [2] was “high solubility”.

Consider `[2H][C@@](C)(NC(=O)COC(F)F)c1cc(F)cc(Cl)c1COc1cccc2c(-c3ncnn3C)cc(C)nc12` [Form A, (S)—N-(1-deutero-1-(3-chloro-5-fluoro-2-((2-methyl-4-(1-methyl-1H-1,2,4-triazol-5-yl)quinolin-8-yloxy)methyl)phenyl)ethyl)-2-(difluoromethoxy)acetamide monohydrate], for which the “GVS overall weight change” value in data set [3] (between 0 and 90% RH) is “ca. 1.9 wt %”. Besides, the GVS hysteresis in data set [3] (between 10 and 80% RH) was 0.2-0.4 wt %.
